{"source": "patent US20210220374A1", "about": "“METHODS OF TREATING TE[…]” (Clarus Therapeutics, Inc., priority 2013, published 2021)", "key": {"[1]": {"experiment": "Optimal sampling time: pooled steady-state serum T data of LOT-AA and LOT-BB, 200 mg T BID as TU", "type": "in vivo, hypogonadal men", "protocol": "An investigation was conducted to identify a single optimal sampling time for monitoring the responsiveness of hypogonadal male patients subjects to chronic BID dosing of T using a SEDDS formulation of TU. Concentration data and derived pharmacokinetic parameters for 41 subjects from two studies (LOT-AA and LOT-BB) where subjects received 200 mg BID of T, as TU, for at least seven days were used in this investigation. Correlation and contingency table approaches were used in the investigation.\nConcentration data and pharmacokinetic parameters from hypogonadal male subjects that participated in study LOT-AA and study LOT-BB were combined into a single data set. From study LOT-AA, only the information from Day 7 of Treatment 3 (8 days of treatment with 200 mg BID of T, as TU) was used. Study LOT-AA contributed data from 26 subjects treated for 7 days, and study LOT-BBBB contributed data from 15 subjects treated for 28 days with 200 mg BID of T, as TU. Combining of the data from these two groups of subjects is supported by the finding from study LOT-BBBB that T steady-state is reached in 5-7 days.\nThe sample collection times for these two studies both spanned a 12-hour window, but not all sample collection times were common to both studies. LOT-AA used sample collection times of 0, 1, 2, 4, 8 and 12 hours; LOT-BBBB used sample collection times of 0, 1.5, 3, 4, 5, 6, 8 and 12 hours. The current analysis used the superset of the combined set of collection times (0, 1, 1.5, 2, 3, 4, 5, 6, 8 and 12 hours). Concentration values that were missing for a subject in either of the data sets at a particular sample collection time were estimated by linear interpolation, using the existing nearest neighbor concentration values for that subject, i.e., interpolation of missing data was subject-specific."}, "[2]": {"experiment": "Example 4 food effects study of Formulation B", "type": "in vivo, hypogonadal men", "protocol": "Subjects were randomized to receive the drug in the fasting state or 30 minutes after consumption of meals containing ˜800 calories with specific amounts of fat (wt %): very low fat (6-10%); low fat (20%); “normal” diet fat (30%); or high fat (50%). The “normal” diet was, a priori, established as the comparator (i.e., reference diet) for purposes of statistical comparisons. Serial blood samples were collected for a total of 24 hours after drug administration to determine serum testosterone and dihydrotestosterone (DHT) levels by liquid chromatography-mass spectroscopy (LC/MS/MS)."}, "[3]": {"settings": "targeted Cavg 300-1000, 41 subjects"}}}
{"smiles": "CCCCCCCCCCC(=O)O[C@H]1CC[C@H]2[C@@H]3CCC4=CC(=O)CC[C@]4(C)[C@H]3CC[C@]12C", "note": "[TU, testosterone undecanoate]", "values": [{"measurement": "C(2), Min", "setting": "[1]; serum T, N 41", "value": 116, "unit": "ng/dL"}, {"measurement": "C(3), Max", "setting": "[1]; serum T, N 41", "value": 1440, "unit": "ng/dL"}, {"measurement": "C(3), Mean", "setting": "[1]; serum T, N 41", "value": 600, "unit": "ng/dL"}, {"measurement": "C(3), Median", "setting": "[1]; serum T, N 41", "value": 546, "unit": "ng/dL"}, {"measurement": "C(3), Min", "setting": "[1]; serum T, N 41", "value": 160, "unit": "ng/dL"}, {"measurement": "C(4), Max", "setting": "[1]; serum T, N 41", "value": 1770, "unit": "ng/dL"}, {"measurement": "C(4), Mean", "setting": "[1]; serum T, N 41", "value": 745, "unit": "ng/dL"}, {"measurement": "C(4), Median", "setting": "[1]; serum T, N 41", "value": 720, "unit": "ng/dL"}, {"measurement": "C(4), Min", "setting": "[1]; serum T, N 41", "value": 127, "unit": "ng/dL"}, {"measurement": "C(5), Max", "setting": "[1]; serum T, N 41", "value": 1690, "unit": "ng/dL"}, {"measurement": "C(5), Mean", "setting": "[1]; serum T, N 41", "value": 708, "unit": "ng/dL"}, {"measurement": "C(5), Median", "setting": "[1]; serum T, N 41", "value": 686, "unit": "ng/dL"}, {"measurement": "C(5), Min", "setting": "[1]; serum T, N 41", "value": 125, "unit": "ng/dL"}, {"measurement": "C(6), Max", "setting": "[1]; serum T, N 41", "value": 1660, "unit": "ng/dL"}, {"measurement": "C(6), Mean", "setting": "[1]; serum T, N 41", "value": 673, "unit": "ng/dL"}, {"measurement": "C(6), Median", "setting": "[1]; serum T, N 41", "value": 606, "unit": "ng/dL"}, {"measurement": "C(6), Min", "setting": "[1]; serum T, N 41", "value": 216, "unit": "ng/dL"}, {"measurement": "C(8), Max", "setting": "[1]; serum T, N 41", "value": 1910, "unit": "ng/dL"}, {"measurement": "C(8), Mean", "setting": "[1]; serum T, N 41", "value": 537, "unit": "ng/dL"}, {"measurement": "C(8), Median", "setting": "[1]; serum T, N 41", "value": 367, "unit": "ng/dL"}, {"measurement": "C(8), Min", "setting": "[1]; serum T, N 41", "value": 225, "unit": "ng/dL"}, {"measurement": "C(12), Max", "setting": "[1]; serum T, N 41", "value": 757, "unit": "ng/dL"}, {"measurement": "C(12), Mean", "setting": "[1]; serum T, N 41", "value": 278, "unit": "ng/dL"}, {"measurement": "C(12), Median", "setting": "[1]; serum T, N 41", "value": 222, "unit": "ng/dL"}, {"measurement": "C(12), Min", "setting": "[1]; serum T, N 41", "value": 84.2, "unit": "ng/dL"}, {"measurement": "Cavg, Max", "setting": "[1]; serum T, N 41", "value": 1057, "unit": "ng/dL"}, {"measurement": "Cavg, Mean", "setting": "[1]; serum T, N 41", "value": 517, "unit": "ng/dL"}, {"measurement": "Cavg, Median", "setting": "[1]; serum T, N 41", "value": 454, "unit": "ng/dL"}, {"measurement": "Cavg, Min", "setting": "[1]; serum T, N 41", "value": 192, "unit": "ng/dL"}, {"measurement": "Cmax, Max", "setting": "[1]; serum T, N 41", "value": 1910, "unit": "ng/dL"}, {"measurement": "Cmax, Mean", "setting": "[1]; serum T, N 41", "value": 970, "unit": "ng/dL"}, {"measurement": "Cmax, Median", "setting": "[1]; serum T, N 41", "value": 951, "unit": "ng/dL"}, {"measurement": "Cmax, Min", "setting": "[1]; serum T, N 41", "value": 249, "unit": "ng/dL"}, {"measurement": "Number of subjects, Cavg in range", "setting": "[1]; [3]", "value": 33}, {"measurement": "Number of subjects, Cavg too high", "setting": "[1]; [3]", "value": 3}, {"measurement": "Number of subjects, Cavg too low", "setting": "[1]; [3]", "value": 5}, {"measurement": "Difference in serum T response", "setting": "[2]; high-fat vs normal-fat meal", "value": "< 30", "unit": "%"}, {"measurement": "90% confidence interval, serum T PK parameters", "setting": "[2]; low-fat vs normal fat diet, single 300 mg T dose", "value": "85-125%"}]}
